The subject of one assay is SD rats. Nature of the assay: Phenylephrine-induced intraurethral pressure (IUP) and arterial blood pressure (MBP) elevation in anesthetized rats. The following applies: anesthetized male SD rats; for inhibition of phenylephrine-induced intraurethral pressure (IUP) elevation / inhibition of phenylephrine-induced peripheral arterial blood pressure (MBP) elevation: intraduodenal administration. The assay is classed as in vivo. An excerpt: Male SD rats (200-450 g) were anesthetized with an i.p. administration of urethane (1.25 g/kg). The urinary bladder, prostate, and urethra were exposed through an abdominal midline and symphysis pubica incision. A catheter was placed into the prostatic urethra through the bladder dome and secured at bladder neck (vesico-urethral junction) with a silk suture. The distal urethra under pubica was closed. The other side of the catheter was connected to a pressure transducer to measure the intraurethral pressure (IUP). After separating the duodenum and cutting open at about 2 cm from the stomach pylorus, intubating and performing purse-string suture, the test sample was supplied. Then, the median carotid incision was performed, carotid artery was separated, and the arterial blood pressure was measured by pressure transducer connected to artery cannula. Be careful not to hurt the nerves and blood vessels throughout the procedure. After surgery, a small amount (0.1˜0.2 mL) of saline was injected to balance the intraurethral pressure at around 10 cm of water. Then an intravenous injection at a concentration of 30 μg/mL of […] 1 mL/kg was performed before administration and 5 min, 30 min, 1 h, 1.5 h, 2 h, 3 h after administration to induce intraurethral pressure elevation. (If the effect was stable or weakened, then the experiment was ended.) The changes of intraurethral pressure and blood pressure induced by phenylephrine in rats were observed and recorded at different time points before and after administration.

The next assay concerns the target T1, α1B-AR (Homo sapiens, UniProt P35368).
T1 construct: expressed in transfected cells; host or cells: HEK293
T1 sequence (P35368 1-520): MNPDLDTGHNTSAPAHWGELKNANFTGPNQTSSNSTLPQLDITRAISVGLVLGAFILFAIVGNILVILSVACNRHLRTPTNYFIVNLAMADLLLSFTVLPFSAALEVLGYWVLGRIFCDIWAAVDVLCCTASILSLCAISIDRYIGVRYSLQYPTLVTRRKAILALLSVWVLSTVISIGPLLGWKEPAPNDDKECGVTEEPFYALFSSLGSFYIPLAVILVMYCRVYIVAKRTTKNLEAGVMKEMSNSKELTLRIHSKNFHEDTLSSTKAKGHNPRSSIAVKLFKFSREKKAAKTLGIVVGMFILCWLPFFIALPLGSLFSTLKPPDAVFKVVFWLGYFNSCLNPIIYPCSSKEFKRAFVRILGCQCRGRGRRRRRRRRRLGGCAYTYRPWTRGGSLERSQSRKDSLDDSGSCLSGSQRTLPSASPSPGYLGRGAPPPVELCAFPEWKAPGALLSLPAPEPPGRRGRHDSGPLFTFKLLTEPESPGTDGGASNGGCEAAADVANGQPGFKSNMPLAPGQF
Kind of assay: Calcium mobilization (Fluo-4) antagonism of phenylephrine in HEK293 cells expressing α1B-AR/Gα16. The assay is classed as cell-based. The following applies: phenylephrine 30 nM. Here is the method:
(§1) HEK293 cells stably expressing α1A-AR/Gα16, α1B-AR/Gα16, α1D-AR/Gα16 were seeded in a 96-well plate, and cultured for 24 hours. Then the medium was removed and 40 μL Hank's balanced salt solution (HBSS: containing 5.4 mM KCl, 0.3 mM Na2HPO4, 0.4 mM KH2PO4, 4.2 mM NaHCO3, 1.3 mM CaCl2, 0.5 mM MgCl2, 0.6 mM MgSO4, 137 mM NaCl, 5.6 mM D-glucose, and 250 μM sulfinpyrazone, pH 7.4) containing 2 μM Fluo-4 AM was added into each well, and incubated at 37° C. for 45 min. Dye was removed and 50 μL of HBSS containing either test compound or 1% DMSO (negative control) was added. After incubation at room temperature for 10 min, Flex Station 3 microplate reader was used to read the value. At specified time points, 25 μL of agonist (phenylephrine, final concentration 30 nM) was dispensed into the well automatically using the reader and fluorescence intensity change of dye caused by intracellular calcium concentration change was detected at an excitation wavelength of 485 nm and an emission wavelength of 525 nm.
(§2) After incubation with different drugs, the reaction rate of cells to 1-AR agonist phenylephrine was calculated as follows: Reaction rate %=(D−B)/(S−B)*100%;
(§3) The reaction rate of the same drug at different doses was tested using GraphPad Prism software by non-linear regression analysis, and the dose-response curve was obtained and IC50 values was measured. Data were obtained from three separate experiments, and each experiment included three duplicate wells.

Another assay deals with BPH Rat model. Nature of the assay: Pharmacodynamic experiment in BPH rat model (testosterone propionate), urination after water load. The assay is classed as in vivo, SD rats. The conditions noted are these: BPH model rats; for frequency of urination, single urine output: relation to dose: 3 doses, water load 30 mL/kg. Here is the method:
Establishing of BPH Rat model: 6-week-old male SD rats (n=49) (body weight about 200 g), in which 37 rats were BPH model group and daily injected testosterone propionate subcutaneously, and the other 12 rats were Sham group and injected olive oil, for 4 weeks. After 4 weeks, 49 rats received gavage in a dosage of 30 mL/kg of water, and urination for each rat was observed and recorded (recording each urine output and frequency of urination within two hours).
According to the above verification results, rats having abnormal urination were firstly excluded. Then, the normal BPH model rats were divided into 2 groups, 12 rats every group, and 12 rats of Sham group were singled out as control group. Grouping principles were as follows: there were significant differences of body weight, frequency of urination within two hours, single urine output and the total amount of urination between the two groups of BPH model and Sham group, and there were no significant differences between the two groups of BPH model.
Efficacy verification experiment. The experiment had seven groups: Sham group, silodosin group (BPH-1,3-group dose) and DC037009 group (BPH-2,3-group dose). Rats received gavage in a dosage of 5 mL/kg and each dose of the compound dissolved with CMCNa. After 20 min, the rats received gavage in a dosage of 30 mL/kg water. The study time interval of different doses of the same compound was over 24 hours.

A further assay concerns the target T2, α1D-AR (Homo sapiens, UniProt P25100).
T2 construct: expressed in transfected cells; host or cells: HEK293
T2 sequence (P25100 1-572): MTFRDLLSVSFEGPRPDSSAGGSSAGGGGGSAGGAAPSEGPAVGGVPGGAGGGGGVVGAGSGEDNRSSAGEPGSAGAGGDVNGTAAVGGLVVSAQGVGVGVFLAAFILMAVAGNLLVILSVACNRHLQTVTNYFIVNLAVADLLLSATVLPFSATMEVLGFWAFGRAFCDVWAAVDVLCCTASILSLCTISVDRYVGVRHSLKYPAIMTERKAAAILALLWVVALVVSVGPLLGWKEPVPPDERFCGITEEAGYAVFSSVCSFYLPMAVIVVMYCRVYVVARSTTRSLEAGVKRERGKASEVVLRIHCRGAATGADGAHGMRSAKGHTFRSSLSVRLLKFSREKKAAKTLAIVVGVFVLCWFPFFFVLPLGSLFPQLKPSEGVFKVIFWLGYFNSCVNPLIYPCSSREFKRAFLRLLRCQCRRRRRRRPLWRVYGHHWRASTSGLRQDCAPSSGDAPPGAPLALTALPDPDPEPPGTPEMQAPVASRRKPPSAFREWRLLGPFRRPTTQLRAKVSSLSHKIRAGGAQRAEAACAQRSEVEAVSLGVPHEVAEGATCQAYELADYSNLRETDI
Kind of assay: Calcium mobilization (Fluo-4) antagonism of phenylephrine in HEK293 cells expressing α1D-AR/Gα16. The assay is classed as cell-based. The conditions noted are these: phenylephrine 30 nM. The procedure: as §1, §2, §3
(A change in cytosolic calcium serves as a functional read-out for many receptors and channels.)

The mark [1] stands for this setting: under certain total urine output.

By IC50 is commonly meant the concentration that inhibits the measured activity by half. Consider `COc1cc2c(cc1OC)CN1CCc3cc4c(cc3[C@@H]1C2)OCO4` [DC037009, S-(−)-2,3-methylenedioxy-10,11-dimethoxy-5,8,13,13a-tetrahydro-6H-dibenzo[a,g]quinolizine], for which, in the assay on SD rats (IUP versus MBP), the “selectivity to urethra (rank order)” value is on record as “DC037009>Silodosin”. For the same molecule, in the assay with SD rats, the “onset dose compared with silodosin” value is “significantly lower than that of positive drug silodosin”, the “rank order of inhibition of phenylephrine-induced blood pressure elevation” value is “Silodosin>DC037009”, the “rank order of inhibition of phenylephrine-induced intraurethral pressure elevation” value is given as “DC037009>Silodosin” and the “inhibition of phenylephrine-induced intraurethral pressure (IUP) elevation” value is “dose-dependently inhibit”. Also, in the assay with SD rats, the “inhibition of phenylephrine-induced peripheral arterial blood pressure (MBP) elevation” value is recorded as “dose-dependently inhibit”. In addition, the IC50 on α1B-AR is 5210 nM. In the assay with BPH Rat model (gavage), the “efficacy compared with positive drug” value is recorded as “comparable to the positive drug”; the onset dose amounted to 1 mg/kg; the “frequency of urination, single urine output: relation to dose” value was “dose-dependent relationship”. In the assay with BPH Rat model (setting [1]), the frequency of urination result is given as “reduce frequency of urination” and the single urine output result is listed as “significantly increase”. Further, the IC50 on α1D-AR stood at 260 nM.
For `COc1cc2c(cc1OCc1ccccc1)C[C@H]1c3cc4c(cc3CCN1C2)OCO4` [DC037016], the IC50 at α1B-AR came to 4250 nM; on α1D-AR, 191 nM.
Regarding `C[C@H](Cc1cc2c(c(C(N)=O)c1)N(CCCO)CC2)NCCOc1ccccc1OCC(F)(F)F` [Silodosin, reference compound], in the assay with SD rats, the “inhibition of phenylephrine-induced intraurethral pressure (IUP) elevation” value is “dose-dependently inhibit” and the “inhibition of phenylephrine-induced peripheral arterial blood pressure (MBP) elevation” value is on record as “dose-dependently inhibit”. The “frequency of urination, single urine output: relation to dose” value in the assay with BPH Rat model (gavage) is on record as “dose-dependent relationship”.

The values are drawn from patent US9737517B2, “Pharmaceutical use of hexahydro-dibenzo[a,g]quinolizine compounds” (SHANGHAI INSTITUTE OF MATERIA MEDICA, CHINESE ACADEMY OF …, priority 2013, dated 2017).
